Results: patent US11999739B2, “Antimicrobials methods of making and using the same” (BIOVERSYS AG, priority 2016, dated 2024)

What was measured:
[1] = tested on: Staphylococcus aureus (S. aureus) 11540 strain; experiment: Standard microdilution MIC assay, S. aureus; assay type: cell-based
Method in brief: (§1)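 MICs obtained by CLSI-standard microdilution, quality-controlled with reference strains in parallel. Values reported as + or − relative to a 16 micrograms/mL cutoff.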

[2] = Rat five day safety study (bodyweight gain, reticulocyte count change); assay type: in vivo; conditions: male Sprague-Dawley juvenile rats, n=5, once daily slow intravenous infusion for 5 days at or near maximum-tolerated dose; for BW Result: bodyweight gain; for Hematology Result: reticulocyte count change
Description: The compounds of the present disclosure were tested for safety in a multi-day dosing study in rat. Key parameters that were monitored are bodyweight gain and hematological changes, particularly changes in reticulocyte counts. Male Sprague-Dawley (CD) juvenile rats were received from Charles River with double jugular vein catheters. For each compound, n=5. […] Bodyweights were recorded daily for the first 5 days (during the dosing period), then 2 to 3 times per week thereafter. Blood was collected via a jugular vein catheter into EDTA anti-coagulated tubes for complete blood counts (CBC) on Days 0 (baseline), 3 and 7. On Day 22, blood was drawn via a cardiac puncture into EDTA coated tubes for final CBC, and serum separator tubes for the complete clinical chemistry profile. The blood that was collected into serum separator tubes was allowed to clot at room temperature for approximately 30 minutes, spun in a centrifuge at 2000 rpm, and the resulting serum was aliquoted. All samples were sent on wet ice to Charles River Labs for analysis.

[3] = tested on: Escherichia coli strain ATCC25922; experiment: Standard microdilution MIC assay, E. coli; assay type: cell-based
Method in brief: as §1

| MIC [1] | MIC [3] | Structure (SMILES) | BW Result [2] | Hematology Result [2] |
| --- | --- | --- | --- | --- |
| ≤ 16 µg/mL | ≤ 16 µg/mL | CC(C)(N)CCCc1cc(Cl)c(F)c(-c2cc3cn(-c4ccc([C@@H]5COC[C@@H](CCNC(=N)CF)N5)cc4)c(=O)nc3[nH]2)c1 [Compound 69] | – | – |
| ≤ 16 µg/mL | ≤ 16 µg/mL | C=CC(CCNC(=N)CSC)NCc1ccc(-n2cc3cc(-c4cc(CCC[C@H](C)N)cc(Cl)c4F)[nH]c3nc2=O)cc1 (some centres unmarked) [Compound 9] | – | – |
| ≤ 16 µg/mL | ≤ 16 µg/mL | COC(=O)c1ccc(-c2cc3cn(-c4ccc([C@@H]5CCC[C@@H](CCNC(C)=N)N5)cc4)c(=O)nc3[nH]2)cc1CCC[C@H](C)N [Compound 291] | – | – |
| ≤ 16 µg/mL | ≤ 16 µg/mL | CC(=N)NCC[C@H]1CNC[C@@H](c2ccc(-n3cc4cc(-c5cc(CCC[C@H](C)N)cc(Cl)c5F)[nH]c4nc3=O)cc2)O1 [Compound 4] | – | – |
| ≤ 16 µg/mL | ≤ 16 µg/mL | CC(=N)NCC[C@@H]1CCC[C@@H](c2ccc(-n3cc4cc(-c5cc(CCCC6(N)CC6)cc(Cl)c5F)[nH]c4nc3=O)cc2F)N1 [Compound 169] | – | – |
| ≤ 16 µg/mL | ≤ 16 µg/mL | CSc1cc(-n2cc3cc(-c4cc(CCC[C@H](C)N)cc(Cl)c4F)[nH]c3nc2=O)cc(F)c1[C@@H]1CCC[C@@H](CCNC(C)=N)N1 [Compound 240] | – | – |
| ≤ 16 µg/mL | ≤ 16 µg/mL | COC[C@@H](CCNC(C)=N)NCc1ccc(-n2cc3cc(-c4cc(CCC[C@@H](N)CF)cc(Cl)c4F)[nH]c3nc2=O)cc1 [Compound 188] | – | – |
| ≤ 16 µg/mL | ≤ 16 µg/mL | C=C[C@H](N)CCCc1cc(Cl)c(F)c(-c2cc3cn(-c4ccc([C@@H]5CCC[C@@H](CCNC(C)=N)N5CCCF)c(SC)c4)c(=O)nc3[nH]2)c1 [Compound 344] | – | – |
| ≤ 16 µg/mL | ≤ 16 µg/mL | CC(=N)NC[C@@H]1CCC[C@@H](c2ccc(-n3cc4cc(-c5cc(CCC[C@H](C)N)cc(Cl)c5F)[nH]c4nc3=O)cc2)N1 [Compound 363] | – | – |
| ≤ 16 µg/mL | ≤ 16 µg/mL | COC[C@H](N)CCCc1cc(OC(F)(F)F)c(F)c(-c2cc3cn(-c4ccc([C@@H]5CCC[C@@H](CCNC(C)=N)N5)c(C)c4)c(=O)nc3[nH]2)c1 [Compound 238] | – | – |
| ≤ 16 µg/mL | ≤ 16 µg/mL | C=CC(CCNC(C)=N)NCc1ccc(-n2cc3cc(-c4cc(CCC[C@@H](N)CO)cc(Cl)c4F)[nH]c3nc2=O)cc1 (some centres unmarked) [Compound 8] | – | – |
| ≤ 16 µg/mL | ≤ 16 µg/mL | CSc1cc(-n2cc3cc(-c4cc(CCC(F)(F)CN)cc(Cl)c4F)[nH]c3nc2=O)ccc1[C@@H]1CCC[C@@H](CCNC(C)=N)N1 [Compound 129] | – | – |
| ≤ 16 µg/mL | ≤ 16 µg/mL | C=C[C@H](NCCCNC(C)=N)c1ccc(-n2cc3cc(-c4cc(CCC[C@@H](N)COC)cc(OC(F)(F)F)c4F)[nH]c3nc2=O)cc1 [Compound 268] | – | – |
| ≤ 16 µg/mL | ≤ 16 µg/mL | CC(=N)NCC[C@@H]1CCC[C@@H](c2ccc(-n3cc4cc(-c5cc(CCC(F)(F)CN)cc(Cl)c5F)[nH]c4nc3=O)cc2)N1 [Compound 90] | – | – |
| ≤ 16 µg/mL | ≤ 16 µg/mL | CC(=N)NCCCN[C@@H](CO)c1ccc(-n2cc3cc(-c4cc(CCC[C@@H](N)CF)cc(Cl)c4F)[nH]c3nc2=O)cc1 [Compound 136] | – | – |
| ≤ 16 µg/mL | ≤ 16 µg/mL | C=C[C@H](N)CCCc1cc(Cl)c(F)c(-c2cc3cn(-c4ccc([C@H](C)NCCCNC(C)=N)c(F)c4)c(=O)nc3[nH]2)c1 [Compound 111] | – | – |
| ≤ 16 µg/mL | ≤ 16 µg/mL | COC[C@H](N)CCCc1cc(-c2cc3cn(-c4ccc([C@@H]5CCC[C@@H](CCNC(C)=N)N5)c(OC)c4)c(=O)nc3[nH]2)cc(C(F)(F)F)c1 [Compound 210] | – | – |
| ≤ 16 µg/mL | ≤ 16 µg/mL | CN1[C@H](CCNC(=N)CF)CCC[C@H]1c1ccc(-n2cc3cc(-c4cc(CCC[C@@H](N)CO)cc(Cl)c4F)[nH]c3nc2=O)cc1 [Compound 122] | – | – |
| ≤ 16 µg/mL | ≤ 16 µg/mL | COCCOCC(=N)NCC[C@@H]1CCC[C@@H](c2ccc(-n3cc4cc(-c5cc(CCC[C@H](C)N)cc(Cl)c5F)[nH]c4nc3=O)cc2)N1 [Compound 362] | – | – |

| Structure (SMILES) | MIC [1] | MIC [3] | BW Result [2] | Hematology Result [2] |
| --- | --- | --- | --- | --- |
| CC(=N)NCC[C@@H]1CCC[C@@H](c2ccc(-n3cc4cc(-c5cc(CCC[C@@H](N)C6CC6)cc(C(F)(F)F)c5F)[nH]c4nc3=O)cn2)N1 [Compound 249] | ≤ 16 µg/mL | ≤ 16 µg/mL | + (a “+” in “BW result” indicates that the rat exhibited a weight gain of 20% or more) | + (a “+” in “Hematology result” indicates indicates that the rat exhibited a reticulocyte count change of 65% or less) |
| C=C[C@@H](CCNC(=N)CF)NCc1ccc(-n2cc3cc(-c4cc(CCC[C@H](C)N)cc(Cl)c4F)[nH]c3nc2=O)cc1 [Compound 23] | ≤ 16 µg/mL | ≤ 16 µg/mL | + (a “+” in “BW result” indicates that the rat exhibited a weight gain of 20% or more) | + (a “+” in “Hematology result” indicates indicates that the rat exhibited a reticulocyte count change of 65% or less) |
| C=C[C@@H](N)CCCc1cc(Cl)c(F)c(-c2cc3cn(-c4ccc([C@@H]5CCC[C@@H](CCNC(C)=N)N5)cc4)c(=O)nc3[nH]2)c1 [Compound 36] | ≤ 16 µg/mL | ≤ 16 µg/mL | – | − (a “−” indicates indicates that the rat exhibited a reticulocyte count change of greater than 65%) |
| CC(=N)NCCCN[C@@H](C)c1ccc(-n2cc3cc(-c4cc(CCC[C@H](C)N)cc(Cl)c4F)[nH]c3nc2=O)cc1 [Compound 110] | ≤ 16 µg/mL | ≤ 16 µg/mL | − (a “−” indicates that the rat exhibited a weight gain of less than 20%) | − (a “−” indicates indicates that the rat exhibited a reticulocyte count change of greater than 65%) |
| CC(=N)NCC[C@@H](NCc1ccc(-n2cc3cc(-c4cc(CCC[C@H](C)N)cc(Cl)c4F)[nH]c3nc2=O)cc1)C1CC1 [Compound 119] | ≤ 16 µg/mL | ≤ 16 µg/mL | − (a “−” indicates that the rat exhibited a weight gain of less than 20%) | − (a “−” indicates indicates that the rat exhibited a reticulocyte count change of greater than 65%) |
| CC(=N)NCC[C@@H]1CCC[C@@H](c2ccc(-n3cc4cc(-c5cc(CCC[C@@H](N)C6CC6)cc(Cl)c5F)[nH]c4nc3=O)cc2)N1C [Compound 123] | ≤ 16 µg/mL | ≤ 16 µg/mL | + (a “+” in “BW result” indicates that the rat exhibited a weight gain of 20% or more) | + (a “+” in “Hematology result” indicates indicates that the rat exhibited a reticulocyte count change of 65% or less) |
| COC[C@H](N)CCCc1cc(-c2cc3cn(-c4ccc([C@@H]5CCC[C@@H](CCNC(C)=N)N5)cc4)c(=O)nc3[nH]2)cc(C(F)(F)F)c1 [Compound 200] | ≤ 16 µg/mL | ≤ 16 µg/mL | + (a “+” in “BW result” indicates that the rat exhibited a weight gain of 20% or more) | − (a “−” indicates indicates that the rat exhibited a reticulocyte count change of greater than 65%) |
| COC[C@H](N)CCCc1cc(-c2cc3cn(-c4ccc([C@@H]5CCC[C@@H](CCNC(C)=N)N5)c(SC)c4)c(=O)nc3[nH]2)c(F)c(C(F)(F)F)c1 [Compound 199] | ≤ 16 µg/mL | ≤ 16 µg/mL | + (a “+” in “BW result” indicates that the rat exhibited a weight gain of 20% or more) | − (a “−” indicates indicates that the rat exhibited a reticulocyte count change of greater than 65%) |
| CC(=N)NCC[C@@H]1CCC[C@@H](c2ccc(-n3cc4cc(-c5cc(CCC[C@H](C)N)c(C(F)(F)F)cc5F)[nH]c4nc3=O)cc2)N1 [Compound 317] | ≤ 16 µg/mL | ≤ 16 µg/mL | − (a “−” indicates that the rat exhibited a weight gain of less than 20%) | − (a “−” indicates indicates that the rat exhibited a reticulocyte count change of greater than 65%) |
| CC(=N)NCC[C@@H]1CCC[C@@H](c2ccc(-n3cc4cc(-c5cc(CCC[C@H](C)N)cc(Cl)c5F)[nH]c4nc3=O)cc2F)N1 [Compound 152] | ≤ 16 µg/mL | ≤ 16 µg/mL | + (a “+” in “BW result” indicates that the rat exhibited a weight gain of 20% or more) | + (a “+” in “Hematology result” indicates indicates that the rat exhibited a reticulocyte count change of 65% or less) |
| COC[C@H](N)CCCc1cc(OC(F)(F)F)c(F)c(-c2cc3cn(-c4ccc([C@@H]5CCC[C@@H](CCNC(C)=N)N5)c(F)c4)c(=O)nc3[nH]2)c1 [Compound 196] | ≤ 16 µg/mL | ≤ 16 µg/mL | + (a “+” in “BW result” indicates that the rat exhibited a weight gain of 20% or more) | + (a “+” in “Hematology result” indicates indicates that the rat exhibited a reticulocyte count change of 65% or less) |
| C=C[C@H](N)CCCc1cc(Cl)c(F)c(-c2cc3cn(-c4ccc([C@@H]5CCC[C@@H](CCNC(C)=N)N5)c(SC)c4)c(=O)nc3[nH]2)c1 [Compound 182] | ≤ 16 µg/mL | ≤ 16 µg/mL | − (a “−” indicates that the rat exhibited a weight gain of less than 20%) | − (a “−” indicates indicates that the rat exhibited a reticulocyte count change of greater than 65%) |
| CC(=N)NCC[C@@H]1CCC[C@@H](c2c(F)cc(-n3cc4cc(-c5cc(CCC[C@H](C)N)cc(Cl)c5F)[nH]c4nc3=O)cc2F)N1 [Compound 127] | ≤ 16 µg/mL | ≤ 16 µg/mL | + (a “+” in “BW result” indicates that the rat exhibited a weight gain of 20% or more) | + (a “+” in “Hematology result” indicates indicates that the rat exhibited a reticulocyte count change of 65% or less) |
